From US8003783B2, “17B-hydroxysteroid dehydrogenase inhibitors” (Sterix Limited, priority 2004, dated 2011) come the findings set out here.

For one assay, the target named is T1, 17β-HSD1 (Homo sapiens, UniProt P14061).
T1 construct: was measured in intact cell monolayers of T47D and MDA-MB-231 breast cancer cells respectively; endogenous in cells; host or cells: T-47D human breast cancer cells
T1 sequence (P14061 1-328): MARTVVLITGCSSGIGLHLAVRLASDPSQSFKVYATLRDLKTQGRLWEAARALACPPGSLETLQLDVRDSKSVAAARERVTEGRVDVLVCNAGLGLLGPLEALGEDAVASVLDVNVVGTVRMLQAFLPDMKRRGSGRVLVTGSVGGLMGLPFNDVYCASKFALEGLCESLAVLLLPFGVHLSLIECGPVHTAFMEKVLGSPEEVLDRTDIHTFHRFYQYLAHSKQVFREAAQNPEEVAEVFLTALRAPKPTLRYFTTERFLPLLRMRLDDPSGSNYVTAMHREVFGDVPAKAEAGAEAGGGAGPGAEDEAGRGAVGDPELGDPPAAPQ
As to the kind of experiment: 17β-HSD Type I activity in T-47D cells (E1→E2). Type of assay: cell-based. The settings on record: for inhibition at 10 µM: T47D.

Another assay has as its target T2, 17β-HSD2 (Homo sapiens, UniProt P37059).
T2 construct: was measured in intact cell monolayers of T47D and MDA-MB-231 breast cancer cells respectively; endogenous in cells; host or cells: MDA-MB-231 human breast cancer cells
T2 sequence (P37059 1-387): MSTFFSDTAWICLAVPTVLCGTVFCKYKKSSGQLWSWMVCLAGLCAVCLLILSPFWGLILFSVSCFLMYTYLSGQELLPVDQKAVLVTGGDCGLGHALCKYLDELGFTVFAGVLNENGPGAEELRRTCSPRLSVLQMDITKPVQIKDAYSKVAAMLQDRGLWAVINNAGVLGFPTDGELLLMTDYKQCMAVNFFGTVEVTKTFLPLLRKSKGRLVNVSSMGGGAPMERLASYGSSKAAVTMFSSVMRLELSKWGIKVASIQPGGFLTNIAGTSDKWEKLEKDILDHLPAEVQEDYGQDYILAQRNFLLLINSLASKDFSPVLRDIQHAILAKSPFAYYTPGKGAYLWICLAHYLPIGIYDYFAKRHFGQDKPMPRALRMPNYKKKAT
The assay can be described thus: 17β-HSD Type II activity in MDA-MB-231 cells (E2→E1). In kind it is cell-based.

[1] abbreviates: 10 μM, T-47D cells, E1→E2, read-out: % inhibition of 17β-HSD1 @ 10 μM.
The mark [2] stands for this setting: T-47D cells, E1→E2, read-out: IC50 (17β-HSD1).
The mark [3] stands for this setting: 10 μM, MDA-MB-231 cells, E2→E1, read-out: % inhibition of 17β-HSD2 @ 10 μM.
Where [4] appears, read: read-out: % inhibition of 17β-HSD1 @ 10 μM, 10 μM, T-47D cells, E1→E2.
The mark [5] stands for this setting: MDA-MB-231, read-out: % inhibition of 17β-HSD2 @ 10 μM.

Each structure is given as a SMILES string. Like-named read-outs stand apart in the source and are kept apart here.

`C[C@]12CCC3c4ccc(O)cc4CCC3C1C/C(=N/O)C2=O` (some centres unmarked) [compound 327]: the “% inhibition of 17β-HSD1 @ 10 μM” value on 17β-HSD1 (10 μM, T-47D cells, E1→E2) is recorded as 94%. The inhibition at 10 µM on 17β-HSD1 (setting [1]) amounted to 96%; at 17β-HSD2 (setting [3]), 5%. For the same compound, on 17β-HSD1 (setting [2]), the IC50 stood at 1.1 µM.

Consider `Cc1cnc(CNC(=O)C2CC3C4CCc5cc(O)ccc5C4CC[C@]3(C)[C@H]2O)cn1` (some centres unmarked) [compound 803], for which the inhibition at 10 µM on 17β-HSD1 (setting [1]) was 85%; at 17β-HSD2 (setting [3]), -18%.

On to `C[C@]12CCC3c4ccc(O)cc4CCC3C1CC(CO)[C@@H]2O` (some centres unmarked) [compound 612], for which the results for the inhibition at 10 µM on 17β-HSD1 (setting [1]) and on 17β-HSD2 (setting [3]) were 86% and 17%, respectively.

In the case of `CC1(C#N)CC2C3CCc4cc(O)ccc4C3CC[C@]2(C)C1=O` (some centres unmarked) [compound 924], the inhibition at 10 µM came to 85% on 17β-HSD1 (setting [1]) and 12% on 17β-HSD2 (setting [3]).

With `C[C@]12CCC3c4ccc(O)cc4CCC3C1CC(C(=O)NCc1ccco1)[C@@H]2O` (some centres unmarked) [compound 679], the inhibition at 10 µM at 17β-HSD1 (setting [1]) is 87%; at 17β-HSD2 (setting [3]) it was -9%.

Regarding `CN(C)c1ccc(/C=C2\CC3C4CCc5cc(O)ccc5C4CC[C@]3(C)C2=O)cc1` (some centres unmarked) [compound 477, 16-(4-Dimethylamino-benzylidene)-3-hydroxy-13-methyl-6,7,8,9,11,12,13,14,15,16-decahydro-cyclopenta[a]phenanthron-17-one], the inhibition at 10 µM on 17β-HSD1 (setting [1]) amounted to 72%; at 17β-HSD2 (setting [3]), 13%.

Consider `C[C@]12CCC3c4ccc(O)cc4CCC3C1C/C(=C\c1ccc(C#N)cc1)[C@@H]2O` (some centres unmarked) [compound 510], for which the inhibition at 10 µM came out at 57% on 17β-HSD1 (setting [1]) and 31% on 17β-HSD2 (setting [3]).

`CC(NC(=O)C1CC2C3CCc4cc(O)ccc4C3CC[C@]2(C)[C@H]1O)c1ccccc1` (some centres unmarked) [compound 844] came in with an IC50 against 17β-HSD1 of 0.81 µM. Moreover, the results for the inhibition at 10 µM at 17β-HSD1 (setting [1]) and at 17β-HSD2 (setting [3]) were 90% and 12%, respectively.

As for `CC(C)(C)/C=C1\CC2C3CCc4cc(O)ccc4C3CC[C@]2(C)[C@H]1O` (some centres unmarked) [compound 948], the inhibition at 10 µM at 17β-HSD1 (setting [1]) was 84%; on 17β-HSD2 (setting [3]), 27%.

On to `COc1cc2c(cc1O)CCC1C2CC[C@]2(C)C(=O)C(C#N)CC12` (some centres unmarked) [compound 208], for which the “% inhibition of 17β-HSD1 @ 10 μM” value at 17β-HSD1 (10 μM, T-47D cells, E1→E2) came out at 31%. Also, the inhibition at 10 µM at 17β-HSD1 (setting [1]) came to 35%; at 17β-HSD2 (setting [3]), 4%.

On to `C[C@]12CCC3c4ccc(O)cc4CCC3C1CC(CC(=O)NCc1ccccn1)C2=O` (some centres unmarked) [compound 669], for which the inhibition at 10 µM at 17β-HSD1 (setting [4]) was 82%; on 17β-HSD2 (setting [5]), 7%.

On 17β-HSD1, `CCOCC1CC2C3CCc4cc(O)ccc4C3CC[C@]2(C)C1=O` (some centres unmarked) [compound 664] registered an IC50 of 0.32 µM. Moreover, the inhibition at 10 µM at 17β-HSD1 (setting [1]) worked out at 92%; on 17β-HSD2 (setting [3]) it was 19%.

`CCOC(=O)CC1CC2C3CCc4cc(O)ccc4C3CC[C@]2(C)C1=O` (some centres unmarked) [compound 573] returned an IC50 against 17β-HSD1 of 0.3 µM. Besides, the results for the inhibition at 10 µM at 17β-HSD1 (setting [1]) and at 17β-HSD2 (setting [3]) were 97% and 18%, respectively.

For the compound `Cn1cccc1CNC(=O)C1CC2C3CCc4cc(O)ccc4C3CC[C@]2(C)[C@H]1O` (some centres unmarked) [compound 802], the inhibition at 10 µM was 86% on 17β-HSD1 (setting [1]) and -7% on 17β-HSD2 (setting [3]).

For the compound `C[C@]12CCC3c4ccc(O)cc4CCC3C1CC(C#N)C2=O` (some centres unmarked) [compound 207], at 17β-HSD1 (10 μM, T-47D cells, E1→E2), the “% inhibition of 17β-HSD1 @ 10 μM” value is 71%. Also, the inhibition at 10 µM on 17β-HSD1 (setting [1]) was determined as 83%; on 17β-HSD2 (setting [3]) it was 17%. For the same compound, the IC50 at 17β-HSD1 (setting [2]) is 10 µM.

For the compound `CN(C)CCCNC(=O)CC1CC2C3CCc4cc(O)ccc4C3CC[C@]2(C)C1=O` (some centres unmarked) [compound 688], the inhibition at 10 µM on 17β-HSD1 (setting [1]) was determined as 36%; at 17β-HSD2 (setting [3]), 13%.

On to `CCc1cc2c(cc1OS(N)(=O)=O)CCC1C2CC[C@]2(C)C(=O)C(CC(=O)NCc3cccnc3)CC12` (some centres unmarked) [compound 1039], for which, on 17β-HSD1 (setting [2]), the IC50 is 5.1 µM. In addition, at 17β-HSD2 (setting [3]), the inhibition at 10 µM was -4%.

Turning to `CN1CCN(C(=O)c2[nH]nc3c2CC2C4CCc5cc(O)ccc5C4CC[C@]32C)CC1` (some centres unmarked) [compound 897], the inhibition at 10 µM at 17β-HSD1 (setting [4]) is 50%; on 17β-HSD2 (setting [5]), -0.7%.

Regarding `C[C@]12CCC3c4ccc(O)cc4CCC3C1C/C(=C\c1cccnc1)C2=O` (some centres unmarked) [compound 320], the inhibition at 10 µM on 17β-HSD1 (setting [1]) is 44%; at 17β-HSD2 (setting [3]) it was 10%.

Turning to `C[C@]12CCC3c4ccc(OS(N)(=O)=O)cc4CCC3C1C/C(=C\c1ccccc1)[C@@H]2O` (some centres unmarked) [compound 315], the inhibition at 10 µM stood at 4% at 17β-HSD1 (setting [1]) and 1% at 17β-HSD2 (setting [3]).

Regarding `Cc1cnc(CNC(=O)c2[nH]nc3c2CC2C4CCc5cc(O)ccc5C4CC[C@]32C)cn1` (some centres unmarked) [compound 896], the inhibition at 10 µM on 17β-HSD1 (setting [4]) came out at 80%; at 17β-HSD2 (setting [5]), 61%.

`CCOC(=O)CC1CC2C3CCc4cc(O)ccc4C3CC[C@]2(C)[C@H]1O` (some centres unmarked) [compound 574]: the inhibition at 10 µM turned out to be 67% on 17β-HSD1 (setting [1]) and 18% at 17β-HSD2 (setting [3]).

As to `COC(=O)C1CC2C3CCc4cc(O)ccc4C3CC[C@]2(C)C1=O` (some centres unmarked) [compound 568], the inhibition at 10 µM on 17β-HSD1 (setting [1]) turned out to be 69%; on 17β-HSD2 (setting [3]), 9%.

As for `C[C@]12CCC3c4ccc(O)cc4C(=O)CC3C1Cc1c[nH]nc12` (some centres unmarked) [compound 737, 2-Hydroxy-6a-methyl-5,6,6a,8,10,10a,10b,11-octahydro-4bH-7,8-diazo-pentaleno[2,1-a]phenanthren-12-one], the values for the inhibition at 10 µM on 17β-HSD1 (setting [1]) and on 17β-HSD2 (setting [3]) were 96% and -9%, respectively. The IC50 at 17β-HSD1 (setting [2]) amounted to 0.46 µM.

As for `CN(C)c1ccc(CC2CC3C4CCc5cc(O)ccc5C4CC[C@]3(C)[C@H]2O)cc1` (some centres unmarked) [compound 594, 16-(4-Dimethylamino-benzyl)-13-methyl-7,8,9,11,12,13,14,15,16,17-decahydro-6H-cyclopenta[a]phenanthrene-3,17-diol], the inhibition at 10 µM at 17β-HSD1 (setting [1]) is 41%; at 17β-HSD2 (setting [3]), 25%.

As to `CNC(=O)CC1CC2C3CCc4cc(O)ccc4C3CC[C@]2(C)[C@H]1O` (some centres unmarked) [compound 775], the inhibition at 10 µM at 17β-HSD1 (setting [1]) is 63%; at 17β-HSD2 (setting [3]), 11%.

Take `COc1cc2c(cc1OS(N)(=O)=O)CCC1C2CC[C@]2(C)C(=O)C(C#N)CC12` (some centres unmarked) [compound 210]: the inhibition at 10 µM came out at 95% at 17β-HSD1 (setting [1]) and 8% at 17β-HSD2 (setting [3]). The IC50 at 17β-HSD1 (setting [2]) was 2.1 µM.

For the compound `C[C@]12CCC3c4ccc(O)cc4CCC3C1CC(CC(=O)O)[C@@H]2O` (some centres unmarked) [compound 603], the figures for the inhibition at 10 µM at 17β-HSD1 (setting [1]) and at 17β-HSD2 (setting [3]) were 58% and 0%, respectively.

Turning to `CCOC(=O)/C(O)=C1\CC2C3CCc4cc(O)ccc4C3CC[C@]2(C)C1=O` (some centres unmarked) [compound 330], the “% inhibition of 17β-HSD1 @ 10 μM” value at 17β-HSD1 (10 μM, T-47D cells, E1→E2) is reported as 77%. Moreover, the inhibition at 10 µM at 17β-HSD1 (setting [1]) was found to be 72%; at 17β-HSD2 (setting [3]), 7%.

In the case of `CCNC(=O)CC1CC2C3CCc4cc(O)ccc4C3CC[C@]2(C)[C@H]1O` (some centres unmarked) [compound 774], the figures for the inhibition at 10 µM at 17β-HSD1 (setting [1]) and at 17β-HSD2 (setting [3]) were 76% and 13%, respectively.

As to `Cn1c2c(c(=O)n1C)CC1C3CCc4cc(O)ccc4C3CC[C@]21C` (some centres unmarked) [compound 942], the values for the inhibition at 10 µM on 17β-HSD1 (setting [1]) and at 17β-HSD2 (setting [3]) were 32% and 15%, respectively.

In the case of `CCC(O)C1CC2C3CCc4cc(O)ccc4C3CC[C@]2(C)C1=O` (some centres unmarked) [compound 665], the values for the inhibition at 10 µM at 17β-HSD1 (setting [1]) and on 17β-HSD2 (setting [3]) were 80% and -18%, respectively.

Turning to `CC(C)(C)/C=C1\CC2C3CCc4cc(O)ccc4C3CC[C@]2(C)C1=O` (some centres unmarked) [compound 748], the inhibition at 10 µM turned out to be 82% at 17β-HSD1 (setting [1]) and 31% on 17β-HSD2 (setting [3]).

`CCOC(=O)c1[nH]nc2c1CC1C3CCc4cc(O)ccc4C3CC[C@]21C` (some centres unmarked) [compound 782]: the inhibition at 10 µM came out at 94% at 17β-HSD1 (setting [1]) and 7% on 17β-HSD2 (setting [3]). For the same compound, the half-inhibitory concentration (IC50) on 17β-HSD1 (setting [2]) is 1.85 µM.

What is called inhibition is the relative decrease from the control value, in per cent. The term IC50 denotes the midpoint of a concentration-inhibition curve.
